According to patent publication US12116343B2, “Inhibitors of APOL1 and methods of using same” (Vertex Pharmaceuticals Incorporated, priority 2020, dated 2024):

target: T1, G1 APOL1 (Homo sapiens, UniProt O14791, I384M/S342G); test: Acute APOL1 Thallium Assay with inducible stable clones of HEK 293 cells; format: cell-based; details: HEK 293 T-Rex cells expressing G1 APOL1; read-out: Thallium Assay (IC50)
T1 construct: expressed in transfected cells
T1 sequence (O14791 28-398 S342G/I384M): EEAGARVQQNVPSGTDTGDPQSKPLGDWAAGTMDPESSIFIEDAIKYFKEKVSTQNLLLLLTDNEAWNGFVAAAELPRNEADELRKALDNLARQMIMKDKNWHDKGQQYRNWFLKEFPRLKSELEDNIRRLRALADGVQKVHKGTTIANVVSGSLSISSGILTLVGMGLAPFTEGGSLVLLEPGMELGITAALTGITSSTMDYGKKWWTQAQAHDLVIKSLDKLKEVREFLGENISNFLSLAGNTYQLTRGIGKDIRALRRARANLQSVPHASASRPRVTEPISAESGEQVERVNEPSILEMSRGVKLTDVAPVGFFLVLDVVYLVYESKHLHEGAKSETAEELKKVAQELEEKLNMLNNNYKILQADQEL
How it was run: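 Readout: Tl+-triggered fluorescence, FLIPR, reflecting potassium flux through APOL1 pores after cells take up an AM-ester thallium indicator. Cells: HEK T-Rex stable clone G1 DC3.25, APOL1 G1 induced by tetracycline, seeded 26000 per well.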

Structure (SMILES)	IC50 [nM]
CNC(=O)C(C)NC(=O)[C@H]1C[C@H](c2c(-c3ccc(F)cc3)[nH]c3c(F)cc(F)cc32)C1 (mixture of isomers) [Compound 9]	250 to 1000
CCN(C(=O)[C@H]1C[C@H](c2c(-c3ccc(F)cc3)[nH]c3c(F)cc(F)cc32)C1)C(C)CO (mixture of isomers) [Compound 111]	> 1000
CC(CO)N1CCN(C(=O)[C@H]2C[C@H](c3c(-c4ccc(F)cc4)[nH]c4c(F)cc(F)cc43)C2)CC1 (mixture of isomers) [Compound 122]	> 1000
CC(O)CN(CCO)C(=O)[C@H]1C[C@H](c2c(-c3ccc(F)cc3)[nH]c3c(F)cc(F)cc32)C1 (mixture of isomers) [Compound 129]	250 to 1000
O=C(NC1CC(O)C1)[C@H]1C[C@H](c2c(-c3ccc(F)cc3)[nH]c3c(F)cc(F)cc32)C1 (some centres unmarked) [Compound 5]	250 to 1000
O=C(NC1(CO)CCC1)[C@H]1C[C@H](c2c(-c3ccc(F)cc3)[nH]c3c(F)cc(F)cc32)C1 [Compound 6]	< 250
CN1CCC(NC(=O)[C@H]2C[C@H](c3c(-c4ccc(F)cc4)[nH]c4c(F)cc(F)cc43)C2)C1=O (some centres unmarked) [Compound 7]	250 to 1000
O=C(NC(CO)CO)[C@H]1C[C@H](c2c(-c3ccc(F)cc3)[nH]c3c(F)cc(F)cc32)C1 [Compound 8]	< 250
O=C(O)CNC(=O)[C@H]1C[C@H](c2c(-c3ccc(F)cc3)[nH]c3c(F)cc(F)cc32)C1 [Compound 10]	> 1000
CC(C)(NC(=O)[C@H]1C[C@H](c2c(-c3ccc(F)cc3)[nH]c3c(F)cc(F)cc32)C1)C(N)=O [Compound 11]	250 to 1000
CO[C@H]1CCN(C(=O)[C@H]2C[C@H](c3c(-c4ccc(F)cc4)[nH]c4c(F)cc(F)cc43)C2)C1 [Compound 95]	> 1000
O=C([C@H]1C[C@H](c2c(-c3ccc(F)cc3)[nH]c3c(F)cc(F)cc32)C1)N1CC(n2cccn2)C1 [Compound 96]	> 1000
O=C([C@H]1C[C@H](c2c(-c3ccc(F)cc3)[nH]c3c(F)cc(F)cc32)C1)N1C2CCC(C2)C1CO (some centres unmarked) [Compound 97]	> 1000
O=C([C@H]1C[C@H](c2c(-c3ccc(F)cc3)[nH]c3c(F)cc(F)cc32)C1)N1C[C@H]2C[C@@]2(CO)C1 [Compound 98]	> 1000
O=C([C@H]1C[C@H](c2c(-c3ccc(F)cc3)[nH]c3c(F)cc(F)cc32)C1)N1C[C@@H]2[C@@H](CO)[C@@H]2C1 [Compound 99]	> 1000
O=C([C@H]1C[C@H](c2c(-c3ccc(F)cc3)[nH]c3c(F)cc(F)cc32)C1)N1CC[C@H](CO)[C@H](O)C1 [Compound 100]	> 1000
O=C([C@H]1C[C@H](c2c(-c3ccc(F)cc3)[nH]c3c(F)cc(F)cc32)C1)N1CCCC1CCO (some centres unmarked) [Compound 101]	> 1000
CC1(C)CN(C(=O)[C@H]2C[C@H](c3c(-c4ccc(F)cc4)[nH]c4c(F)cc(F)cc43)C2)CC1O (some centres unmarked) [Compound 102]	> 1000
O=C([C@H]1C[C@H](c2c(-c3ccc(F)cc3)[nH]c3c(F)cc(F)cc32)C1)N1CCC2(COC2)C1 [Compound 103]	> 1000
O=C(NCCCO)[C@H]1C[C@H](c2c(-c3ccc(F)cc3)[nH]c3c(F)cc(F)cc32)C1 [Compound 104]	250 to 1000
O=C([C@H]1C[C@H](c2c(-c3ccc(F)cc3)[nH]c3c(F)cc(F)cc32)C1)N1CCC[C@H](O)C1 [Compound 105]	> 1000
O=C([C@H]1C[C@H](c2c(-c3ccc(F)cc3)[nH]c3c(F)cc(F)cc32)C1)N1CC(O)C(N2CCOCC2)C1 (some centres unmarked) [Compound 106]	> 1000
O=C([C@H]1C[C@H](c2c(-c3ccc(F)cc3)[nH]c3c(F)cc(F)cc32)C1)N1CCCC[C@@H]1CO [Compound 107]	> 1000
O=C([C@H]1C[C@H](c2c(-c3ccc(F)cc3)[nH]c3c(F)cc(F)cc32)C1)N1CCC(CO)(CO)CC1 [Compound 108]	> 1000

Structure (SMILES)	IC50 [nM]
O=C([C@H]1C[C@H](c2c(-c3ccc(F)cc3)[nH]c3c(F)cc(F)cc32)C1)N1CCC[C@@H](CO)C1 [Compound 109]	> 1000
CN(C)C[C@@H]1CCN(C(=O)[C@H]2C[C@H](c3c(-c4ccc(F)cc4)[nH]c4c(F)cc(F)cc43)C2)C[C@H]1O [Compound 110]	> 1000
CCC1(O)CN(C(=O)[C@H]2C[C@H](c3c(-c4ccc(F)cc4)[nH]c4c(F)cc(F)cc43)C2)C1 [Compound 112]	> 1000
O=C([C@H]1C[C@H](c2c(-c3ccc(F)cc3)[nH]c3c(F)cc(F)cc32)C1)N1CCOCC1CCO (some centres unmarked) [Compound 113]	> 1000
CC1(C)CN(C(=O)[C@H]2C[C@H](c3c(-c4ccc(F)cc4)[nH]c4c(F)cc(F)cc43)C2)CCC1O (some centres unmarked) [Compound 114]	> 1000
O=C([C@H]1C[C@H](c2c(-c3ccc(F)cc3)[nH]c3c(F)cc(F)cc32)C1)N1CCOC(O)C1 (some centres unmarked) [Compound 115]	250 to 1000
C[C@H]1CN(C(=O)[C@H]2C[C@H](c3c(-c4ccc(F)cc4)[nH]c4c(F)cc(F)cc43)C2)CC[C@@H]1O [Compound 116]	> 1000
O=C([C@H]1C[C@H](c2c(-c3ccc(F)cc3)[nH]c3c(F)cc(F)cc32)C1)N(CCO)CCCO [Compound 117]	> 1000
O=C([C@H]1C[C@H](c2c(-c3ccc(F)cc3)[nH]c3c(F)cc(F)cc32)C1)N1CCO[C@H](CO)C1 [Compound 118]	> 1000
CCC(O)(CCCO)CNC(=O)[C@H]1C[C@H](c2c(-c3ccc(F)cc3)[nH]c3c(F)cc(F)cc32)C1 (some centres unmarked) [Compound 119]	> 1000
CN(CC1(CO)CCOCC1)C(=O)[C@H]1C[C@H](c2c(-c3ccc(F)cc3)[nH]c3c(F)cc(F)cc32)C1 [Compound 120]	> 1000
O=C([C@H]1C[C@H](c2c(-c3ccc(F)cc3)[nH]c3c(F)cc(F)cc32)C1)N(CCOCCO)C1CCC1 [Compound 121]	> 1000
CC(C)N(CCO)C(=O)[C@H]1C[C@H](c2c(-c3ccc(F)cc3)[nH]c3c(F)cc(F)cc32)C1 [Compound 123]	> 1000
CCN(CCO)C(=O)[C@H]1C[C@H](c2c(-c3ccc(F)cc3)[nH]c3c(F)cc(F)cc32)C1 [Compound 124]	250 to 1000
O=C(NCCOCCO)[C@H]1C[C@H](c2c(-c3ccc(F)cc3)[nH]c3c(F)cc(F)cc32)C1 [Compound 125]	< 250
O=C([C@H]1C[C@H](c2c(-c3ccc(F)cc3)[nH]c3c(F)cc(F)cc32)C1)N1CCN(CCO)CC1 [Compound 126]	> 1000
O=C([C@H]1C[C@H](c2c(-c3ccc(F)cc3)[nH]c3c(F)cc(F)cc32)C1)N1CCCC(CCO)C1 (some centres unmarked) [Compound 128]	> 1000
CC1(C)CN(C(=O)[C@H]2C[C@H](c3c(-c4ccc(F)cc4)[nH]c4c(F)cc(F)cc43)C2)CCN1C(=O)[C@H]1C[C@@](C)(O)C1 [Compound 130]	> 1000
CC(O)C1CCCN(C(=O)[C@H]2C[C@H](c3c(-c4ccc(F)cc4)[nH]c4c(F)cc(F)cc43)C2)C1 (some centres unmarked) [Compound 131]	> 1000
O=C([C@H]1C[C@H](c2c(-c3ccc(F)cc3)[nH]c3c(F)cc(F)cc32)C1)N(CCO)c1cnccn1 [Compound 132]	> 1000
NC(=O)C1CCN(C(=O)[C@H]2C[C@H](c3c(-c4ccc(F)cc4)[nH]c4c(F)cc(F)cc43)C2)CC1 [Compound 133]	> 1000
O=C([C@H]1C[C@H](c2c(-c3ccc(F)cc3)[nH]c3c(F)cc(F)cc32)C1)N1CCC(CCO)CC1 [Compound 134]	> 1000
NC(=O)[C@@H]1CCN(C(=O)[C@H]2C[C@H](c3c(-c4ccc(F)cc4)[nH]c4c(F)cc(F)cc43)C2)C1 [Compound 135]	> 1000
